Laboratory results as given in patent US5681925A, “Trifunctional antithrombin and antiplatelet peptides” (priority 1995, dated 1997).
Read-outs that look alike come from different tables or passages of the source. Bridge positions count the residues as written; N and C are the ends. Square brackets hold non-standard residues; d marks the D form. Ends that are not written are not given here. Peptide text beside a SMILES is read from it. Cha = N[C@@H](CC1CCCCC1)C(=O)O; Nle = CCCC[C@H](N)C(=O)O

How the values were obtained:
human platelets [1] = system: human platelets
Protocol: (§1) Human platelet-rich plasma (PRP) is prepared by centrifugation at 200 g-forces for 10 min. at room temperature. Platelet poor plasma (PPP) is prepared by centrifugation at 2,000 g-forces for 10 min. PRP is exposed only to plastic laboratory ware. All experiments are completed within 3 hours of blood collection. Platelet aggregation is measured photometrically using a dual channel aggregometer (Chrono-log Corp., Haverstown, Pa. 19083). One hundred percent light transmission is defined with autologus PPP. Percent maximal change in light transmission is determined from PRP following addition of ADP (1 μM) or thrombin. Thrombin (0.2-2.0 Units/ml)-induced platelet aggregation is concentration dependent and the half-maximal concentration is used for inhibition studies. Peptide 2 (SEQ ID NO: 2) is incubated with PRP (0.45 ml) for 30 seconds prior to the addition of ADP or thrombin. Aggregation is measured in a total volume of 0.5 ml. Inhibitory responses are expressed as percent inhibition when compared to a control value. The concentration resulting in 50% inhibition of aggregation. (IC50) is calculated by simple linear regression.
(§2) Human platelet-rich plasma (PRP) is prepared by centrifugation at 200 g-forces for 10 min. room temperature. Platelet poor plasma (PPP) is prepared by centrifugation at 2,000 g-forces for 10 min. PRP is exposed only to plastic laboratory ware. All experiments are completed within 3 hours of blood collection. Platelet aggregation is measured photometrically using a Chrono-log dual channel aggregometer (Chrono-log Corp., Haverstown, Pa. 19083). One hundred percent light transmission is defined with autologus PPP. Percent maximal change in light transmission is determined from PRP following addition of ADP (1 μM) or thrombin. Thrombin (0.2-2.0 Units/ml)-induced platelet aggregation is concentration dependent and the half-maximal concentration is used for inhibition studies. Peptide 1 (SEQ ID NO: 1) is incubated with PRP (0.45 ml) for 30 seconds prior to the addition of ADP or thrombin. Aggregation is measured in a total volume of 0.5 ml. Inhibitory responses are expressed as percent inhibition when compared to a control value. The concentration resulting in 50% inhibition of aggregation (IC50) is calculated by simple linear regression.

[2] = system: human whole blood platelets; conditions: read-out: IC50 whole blood platelet aggregation, ADP (0.5 μM) and thrombin (0.025 U/ml)
Protocol: (§3) Platelet aggregation in blood is performed in saline diluted (1:2) citrated blood using a whole blood aggregomenter (Chrono-log, model 540-VS). Aliquots of diluted blood are placed in plastic cuvettes and incubated at 37° C. for 15 min. Addition of ADP (2 μM) or thrombin (0.4 U/ml) is used to induce aggregation and the change in electrical impedance is registered on a strip chart recorder. Aggregation is measured in a total blood volume of 1.0 ml. Inhibitory responses are expressed as percent inhibition when compared to a control value. The concentration resulting in 50% inhibition of aggregation (IC50) is calculated by simple linear regression.

[3] = system: rat whole blood platelets; conditions: read-out: IC50 whole blood platelet aggregation, ADP (0.5 μM) and thrombin (0.025 U/ml)
Protocol: as §3

[4] = dog, in vivo
Protocol: (§4) Dogs are anesthetized with sodium pentobarbital (30 mg/kg, i.v.). The femoral artery and both femoral veins are isolated and cannulated for the recording of blood pressure (Gould P23ID, Gould Inc., Medical Products Division, Oxnard, Calif. 93030), blood sampling, and drug administration. Limb leads are placed subcutaneously for monitoring of lead II ECG. Blood pressure and ECG measurements are recorded (Gould 440 recorder, Gould Inc., Instrument Systems Division, Cleveland, Ohio 44114).
Template bleeding times are performed on the median surface of the left leg after the hair has been removed (Nair, Carter-Wallace, Inc., New York, N.Y. 10105) using a Surgicutt® bleeding time device (International Technidyne Corp., Edison, N.J. 08820). Template bleeding times are determined 60 and 30 min before administration of the drug, 15, 30, 60, 120, 180 and 240 min after drug administration.
Whole blood cell counts and analysis of the hemoglobin content are determined on a 140 μL blood sample anticoagulated with EDTA processed with a hematology analyzer (Technicon El, Miles Technicon, Tarrytown, N.Y. 10591). Samples were taken at 60 and 30 min before administration of the drug, 15, 30, 60, 120, 180 and 240 min after drug administration.

dog platelets = test: Intravenous infusion in anesthetized dogs: platelet aggregation; conditions: after 1 nmol/kg/min infusion is stopped
Protocol: as §4, §3

thrombin = test: Intravenous infusion in anesthetized dogs: thrombin time and aPTT
Protocol: as §4
Activated partial thromboplastin time (aPTT) determinations are carried out using the reagents and methods of Dade Diagnostics, Inc. (Aguada, Puerto Rico 0602). Thrombin clotting times are determined by incubating 0.1 ml of rat plasma at 37° C. with 0.1 ml of 0.1M Tris buffer, pH 7.5 for 30 seconds. Coagulation is started with 0.1 ml of bovine thrombin (Sigma Diagnostics, St. Louis, Mo. 63178) solution (12 NIH units/ml). All clotting times are measured semiautomatically using a MLA-Electra 750 automatic coagualation timer, MLA, Inc. (Pleasantville, N.Y. 10570). The concentration required for doubling the clotting time (ID2) is calculated using simple linear regression. […] Estimation of t1/2 is made by linear regression of the response data over time.

human platelets [5] = system: human platelets; remark: listed apart in the source
Protocol: as §1, §2

human plasma = test: Activated partial thromboplastin time (aPTT) in human plasma; type: biochemical
Protocol: (§5) Activated partial thromboplastin time (aPTT) determinations are carried out using the reagents and methods of Dade Diagnostics, Inc. (Aguada, Puerto Rico 00602). Thrombin clotting times are determined by incubating 0.1 ml of rat plasma at 37° C. with 0.1 ml of 0.1M Tris buffer, pH 7.5 for 30 seconds. Coagulation is started with 0.1 ml of bovine thrombin (Sigma Diagnostics, St. Louis, Mo. 63178) solution (12 NIH units/ml). All clotting times are measured semiautomatically using a MLA-Electra 750 automatic coagualation timer, MLA, Inc. (Pleasantville, N.Y. 10570). The concentration required for doubling the clotting time (ID2) is calculated using simple linear regression.
(§6) Activated partial thromboplastin time (aPTT) determinations are carried out using the reagents and methods of Dade Diagnostics, Inc. (Aguada, Puerto Rico 0602). Thrombin clotting times are determined by incubating 0.1 ml of rat plasma at 37° C. with 0.1 ml of 0.1M Tris buffer, pH 7.5 for 30 seconds. Coagulation is started with 0.1 ml of bovine thrombin (Sigma Diagnostics, St. Louis, Mo. 63178) solution (12 NIH units/ml). All clotting times are measured semiautomatically using a MLA-Electra 750 automatic coagualation timer, MLA, Inc. (Pleasantville, N.Y. 10570). The concentration required for doubling the clotting time (ID2) is calculated using simple linear regression.

bovine thrombin = molecular target: T1, bovine thrombin (Bos taurus, UniProt P00735); test: Thrombin clotting time in human plasma; type: biochemical
T1 construct: purchased Sigma Diagnostics, St. Louis, Mo
Protocol: as §5, §6

Work on CCCC[C@@H]1NC(=O)[C@H](CC(=O)O)NC(=O)CNC(=O)[C@H](CCCNC(=N)N)NC(=O)CNC(=O)[C@H](NC(=O)CNC(=O)[C@@H]2CCCN2C(=O)[C@H](CCCNC(=N)N)NC(=O)[C@@H]2CCCN2C(=O)[C@H](N)Cc2ccccc2)CSSC[C@H](C(=O)NCC(=O)N[C@@H](CC(=O)O)C(=O)N[C@@H](Cc2ccc(O)cc2)C(=O)N[C@@H](CCC(=O)O)C(=O)N2CCC[C@H]2C(=O)N[C@H](C(=O)N2CCC[C@H]2C(=O)N[C@@H](CCC(=O)O)C(=O)N[C@@H](CCC(=O)O)C(=O)N[C@@H](C)C(=O)N[C@@H](CC2CCCCC2)C(=O)N[C@H](CCC(=O)O)C(=O)O)[C@@H](C)CC)NC(=O)[C@@H]2CCCN2C1=O [Peptide 1, fPRPGcGRGD(Nle)PcGDYEPIPEEA(Cha)e] (H-[dF]PRPG[dC]GRGD[Nle]P[dC]GDYEPIPEEA[Cha][dE]-OH; disulfide 6-13) yielded an IC50 (human platelets [1]; 3 h) of 11.4 µM, an IC50 [2] of 0.0029 µM and an IC50 [3] of 0.0425 µM. The “time after infusion ends at which blood pressure and heart rate return to baseline control values” [4] was 2 h, the “pharmacodynamic t1/2, restoration of platelet activity” value (dog platelets) was 12.8 ± 1.1 min and the “pharmacodynamic t1/2, restoration of thrombin activity” value (thrombin; after 1 hr infusion of 1 nmol/kg/min) was 17 ± 0.1 min. For the same compound, the “pharmacodynamic t1/2, restoration of thrombin activity” value (thrombin; after 1 hr infusion of 5 nmol/kg/min) was 26 ± 3.2 min.
With CC[C@H](C)[C@H](NC(=O)[C@@H]1CCCN1C(=O)[C@H](CCC(=O)O)NC(=O)[C@H](Cc1ccc(O)cc1)NC(=O)[C@H](CC(=O)O)NC(=O)CNC(=O)[C@H]1CSSC[C@@H](NC(=O)CNC(=O)[C@@H]2CCCN2C(=O)[C@H](CCCNC(=N)N)NC(=O)[C@@H]2CCCN2C(=O)[C@H](N)Cc2ccccc2)C(=O)NCC(=O)N[C@@H](CCCNC(=N)N)C(=O)NCC(=O)N[C@@H](CC(=O)O)C(=O)N[C@@H](Cc2ccccc2)C(=O)N2CCC[C@H]2C(=O)N1)C(=O)N1CCC[C@H]1C(=O)N[C@@H](CCC(=O)O)C(=O)N[C@@H](CCC(=O)O)C(=O)N[C@@H](C)C(=O)N[C@@H](CC1CCCCC1)C(=O)N[C@H](CCC(=O)O)C(=O)O [Peptide 2, fPRPGcGRGDFPcGDYEPIPEEA(Cha)e] (H-[dF]PRPG[dC]GRGDFP[dC]GDYEPIPEEA[Cha][dE]-OH; disulfide 6-13) the IC50 (human platelets [1]; 3 h) was roughly 19 µM and the IC50 (human platelets [5]; 3 h) was 0.06 ± 0.026 µM.
With CN[C@H](Cc1ccccc1)C(=O)N1CCC[C@H]1C(=O)N[C@@H](CCCNC(=N)N)C(=O)O [Peptide 2d, (CH3)fPR, reference compound] the IC50 (human platelets [1]; 3 h) was greater than 1000 µM and the IC50 (human platelets [5]; 3 h) was 0.2 µM.
In the case of “fPRPGCGRGD(Nle)PCGDYEPIPEEAYD [Peptide 4, reference compound]”, the “anticoagulant activity (in words)” value (human plasma; aPTT and thrombin time) is reported as “less anticoagulant activity than Peptide 2”, the “ID2 aPTT” value (human plasma; concentration doubling clotting time) is reported as 115 ± 24 nM and the “ID2 Thrombin Time” value (bovine thrombin; human plasma, concentration doubling clotting time) is reported as 14 ± 3 nM. The “inhibition of ADP-induced platelet aggregation (in words)” value (human platelets [1]; human platelets) was “approximately equivalent to Peptide 1”, the IC50 (human platelets [1]; read-out: IC50 inhibition of platelet aggregation, ADP, human PRP, ADP-induced) was 35.9 ± 0.5 µM and the “fold less active than Peptide 1, thrombin-induced platelet aggregation” value (human platelets [5]; human platelets) was “approximately 1,000 fold”. It also gave an IC50 (human platelets [5]; read-out: IC50 Thrombin, human PRP, thrombin-induced) of 0.408 ± 0.18 µM.
With “fPRPGcvRGD(Nle)PcGDYEPIPEEA(Cha)e ([dF]PRPG[dC][dV]RGD[Nle]P[dC]GDYEPIPEEA[Cha][dE]; disulfide 6-13 (inferred)) [Peptide 11]” the “Relative activity vs Peptide 1: Coagulation aPTT” value (human plasma; ratio to Peptide 1 (ID2 27.9 nM), 1 = as active as Peptide 1) was 0.37, the “Relative activity vs Peptide 1: Coagulation Thrombin Time” value (bovine thrombin; ratio to Peptide 1 (ID2 15 nM), 1 = as active as Peptide 1) was 0.86 and the “Relative activity vs Peptide 1: Aggregation Thrombin” value (human platelets [5]; ratio to Peptide 1 (IC50 5.8 nM), 1 = as active as Peptide 1) was 0.13.
